Values joined by “and” are separate entries in the source; they are usually repeats but may differ in a detail not shown here. Equal values may be shown once. Where a name gives a salt, the structure may show the parent alone.
Key:
[1] = Rearrangement rate study: storage stability of cyclopropenimine 5 and 5.HCl by 1H NMR; format: physicochemical
Description: Freshly obtained cyclopropenimine 5 was placed in a vial (250 mg per vial) and stored at room temperature and in a −20° C. freezer. Freshly isolated cyclopropenimine hydrochloride salt (250 mg of 5.HCl) was also stored at room temperature. At each time point, a small amount of the solid was removed and its ^1H NMR (CDCl3) was used to measure the ratio of cyclopropenimine to the rearranged product.

[2] = Storage of cyclopropenimine hydrochloride salts at room temperature; format: physicochemical; details: stored at room temperature
Description: (§1) tert-Butylamine (1.4 mL, 13.25 mmol, 3.0 equiv) was added to a solution of chlorocyclopropenium salt (Yoshida et al., 1971) (1.640 g, 4.42 mmol, 1.0 equiv) in CH2Cl2 (50 mL). A white precipitate was observed as the reaction mixture was stirred for 48 hours at room temperature. The crude reaction mixture was washed with 1.0 M HCl (3×30 mL), dried with anhydrous sodium sulfate and concentrated in vacuo to yield pure cyclopropenimine hydrochloride salt as a white solid (1.490 g, 97% yield). […] Neutral cyclopropenimine was prepared in situ in CD3CN to be used for pKBH+ estimation. ^1H NMR data was recorded after addition of excess sodium hydride or potassium tert-butoxide to the corresponding cyclopropenimine hydrochloride salt in CD3CN. ^1H NMR (300 MHz, CD3CN) δ 3.60 (m, 4H, NCH(CH3)2), 1.10-1.40 (m, 33H, NC(CH3)3, NCH(CH3)2).
Dicyclohexylamine (93.3 mL, 469.0 mmol, 6.0 equiv) was slowly added to a solution of tetrachlorocyclopropene (9.59 mL, 78.16 mmol, 1.0 equiv) in CH2Cl2 (800 mL) in a 3-liter round bottom flask. A white precipitate formed as the reaction mixture was stirred for a further four hours at room temperature. Next, (S)-2-amino-3-phenylpropan-1-ol (13.0 g, 86.0 mmol, 1.1 equiv) was added in one portion and the reaction mixture was stirred for an additional ten hours. The crude reaction mixture was filtered through a celite plug, then washed with 1.0 M HCl (3×400 mL), dried with anhydrous sodium sulfate and concentrated in vacuo to yield pure cyclopropenimine hydrochloride salt as a white solid (45.0 g, 99% yield). […] 13C NMR (100 MHz, CDCl3) δ 137.8, 129.2, 128.0, 126.2, 116.5, 114.5, 63.7, 61.3, 59.1, 38.4, 32.1, 31.9, 25.4, 24.4. X-Ray quality crystals were obtained by slow condensation of hexanes into a benzene solution of cyclopropenimine hydrochloride salt.
Dicyclohexylamine (1.27 mL, 6.42 mmol, 6.0 equiv) was slowly added to a solution of tetrachlorocyclopropene (0.13 mL, 1.07 mmol, 1.0 equiv) in CH2Cl2 (20 mL) at room temperature. A white precipitate formed as the reaction mixture was stirred for a further four hours. Next, (S)-1-phenylethanamine (0.28 mL, 2.14 mmol, 2.0 equiv) was added in one portion and the reaction mixture was stirred overnight. The crude reaction mixture was filtered through a celite plug, then washed with 1.0 M HCl (3×20 mL), dried with anhydrous sodium sulfate and concentrated in vacuo to yield pure cyclopropenimine hydrochloride salt as a white solid (567 mg, 96% yield).
The crude reaction mixture was washed with 1.0 M HCl (3×10 mL), dried with anhydrous sodium sulfate and concentrated in vacuo to yield pure cyclopropenimine hydrochloride salt as a pale yellow solid (440 mg, 98% yield).

[3] = pKBH+ estimation of cyclopropenimine 1 by 1H NMR equilibrium with reference bases in CD3CN; format: physicochemical
Description: The inventors have measured the acidity of the conjugate acid (pKBH+) of cyclopropenimine (compound 1),
These findings confirm for the first time that 2,3-bis(dialkylamino)cyclopropenimines are indeed potent Brønsted bases.
as §1
Cyclopropenimine hydrochloride (18.2 mg, 0.053 mmol, 1.0 equiv) and 1,8-diazabicycloundec-7-ene (7.9 μl, 0.053 mmol, 1.0 equiv) were dissolved in CD3CN. The ^1H NMR chemical shift of the cyclopropenimine isopropyl groups was used to estimate the equilibrium ratio and equilibrium constant of the reaction. The equilibrium constant was then used, with the known pKBH+ of DBU (Kaljurand et al., 2005), to determine the estimated pKBH+. The experiment was repeated in triplicate. A representative ^1H NMR spectrum of the experiment is included.
Cyclopropenimine hydrochloride (13.8 mg, 0.04 mmol, 1.0 equiv) and tert-Butylimino-tri(pyrrolidino)phosphorane (12.5 mg, 0.04 mmol, 1.0 equiv) were dissolved in CD3CN. The ^1H NMR chemical shift of the cyclopropenimine isopropyl groups was used to estimate the equilibrium ratio and equilibrium constant of the reaction. The equilibrium constant was then used, with the known pKBH+ of BTPP (Kaljurand et al., 2005), to determine the estimated pKBH+. The experiment was repeated in triplicate.

[4] = in acetonitrile; Kaljurand et al., 2005; cited from earlier work

## OC[C@H](Cc1ccccc1)N=c1c(N(C2CCCCC2)C2CCCCC2)c1N(C1CCCCC1)C1CCCCC1 [cyclopropenimine 5, (S)-2-(2,3-bis(dicyclohexylamino)cycloallylamino)-3-phenylpropan-1-ol]
[1]; neat solid in a vial, pure sample stored at room temperature, followed over 30 days, read-out: t1/2 of conversion to rearranged compound 13 (converted)
  half-life: ~12 days
[1]; solid stored at rt, 0 days
  Cyclopropenimine purity (%): 100%
[1]; solid stored at rt, 2 days
  Cyclopropenimine purity (%): 78%
[1]; solid stored at rt, 9 days
  Cyclopropenimine purity (%): 57%
[1]; solid stored at rt, 16 days
  Cyclopropenimine purity (%): 39%
[1]; solid stored at rt, 23 days
  Cyclopropenimine purity (%): 25%
[1]; solid stored at rt, 30 days
  Cyclopropenimine purity (%): 5%
[1]; solid stored at −20° C., 0 days
  Cyclopropenimine purity (%): 100%
[1]; solid stored at −20° C., 2 days
  Cyclopropenimine purity (%): 100%
[1]; solid stored at −20° C., 9 days
  Cyclopropenimine purity (%): 98%
[1]; solid stored at −20° C., 16 days
  Cyclopropenimine purity (%): 96%
[1]; solid stored at −20° C., 23 days
  Cyclopropenimine purity (%): 96%
[1]; solid stored at −20° C., 30 days
  Cyclopropenimine purity (%): 94%
[1]; stored at −20° C., after 30 days
  sample still intact: 94%

## Cl.OC[C@H](Cc1ccccc1)N=c1c(N(C2CCCCC2)C2CCCCC2)c1N(C1CCCCC1)C1CCCCC1 [5.HCl, (S)-2-(2,3-bis(dicyclohexylamino)cycloallylamino)-3-phenylpropan-1-ol hydrochloride salt]
[2]
  storage stability of the hydrochloride salt: without noticeable decomposition
[1]; HCl salt stored at room temperature, 0 days
  Cyclopropenimine purity (%): 100%
[1]; HCl salt stored at room temperature, 2 days
  Cyclopropenimine purity (%): 100%
[1]; HCl salt stored at room temperature, 9 days
  Cyclopropenimine purity (%): 100%
[1]; HCl salt stored at room temperature, 16 days
  Cyclopropenimine purity (%): 100%
[1]; HCl salt stored at room temperature, 23 days
  Cyclopropenimine purity (%): 100%
[1]; HCl salt stored at room temperature, 30 days
  Cyclopropenimine purity (%): 100%
[1]; at room temperature
  stability of the HCl salt: indefinitely stable

## CC(C)N(c1c(N(C(C)C)C(C)C)c1=NC(C)(C)C)C(C)C [cyclopropenimine 1, 3-(tert-butylimino)-N1,N1,N2,N2-tetraisopropylcycloprop-1-ene-1,2-diamine]
[3]; average of three trials, BTPP as reference base, CD3CN
  Estimated pKBH+ (CD3CN), BTPP, Average: 26.96
[3]; average of three trials, DBU as reference base, CD3CN
  Estimated pKBH+ (CD3CN), DBU, Average: 26.74
[3]; in acetonitrile
  acidity of the conjugate acid (pKBH+): 26.9
  basicity relative to comparable guanidine BTMG: three orders of magnitude more basic
[3]; single trial, BTPP as reference base, CD3CN
  Estimated pKBH+ (CD3CN), BTPP: 27.00 and 26.85 and 27.03
[3]; single trial, DBU as reference base, CD3CN
  Estimated pKBH+ (CD3CN), DBU: 26.75 and 26.74

## CC(C)N(c1c(N(C(C)C)C(C)C)c1=NC(C)(C)C)C(C)C [1.HCl, 3-(tert-butylimino)-N1,N1,N2,N2-tetraisopropylcycloprop-1-ene-1,2-diamine hydrochloride salt]
[2]
  storage stability of the hydrochloride salt: without noticeable decomposition

## C[C@H](N=c1c(N(C2CCCCC2)C2CCCCC2)c1N(C1CCCCC1)C1CCCCC1)c1ccccc1.Cl [7.HCl, (S)—N1,N1,N2,N2-tetracyclohexyl-3-(1-phenylethylimino)cycloprop-1-ene-1,2-diamine hydrochloride salt]
[2]
  storage stability of the hydrochloride salt: without noticeable decomposition

## CN(C)C(=NC(C)(C)C)N(C)C [BTMG]
[4]
  pKBH+: 23.56

## CC(C)N(c1c(N(C(C)C)C(C)C)c1=N[C@H](CO)Cc1ccccc1)C(C)C.Cl [8.HCl, (S)-2-(2,3-bis(diisopropylamino)cycloallylamino)-3-phenylpropan-1-ol hydrochloride salt]
[2]
  storage stability of the hydrochloride salt: without noticeable decomposition

## C1CN=C2NCCCN2C1 [TBD]
[4]
  pKBH+: 26.03

## CN(C)P(=NC(C)(C)C)(N(C)C)N(C)C [P1-^tBu]
[4]
  pKBH+: 26.98

Source: US20140288323A1, “CYCLOPROPENIMINE CATALYST COMPOSITIONS AND PROCESSES” (THE TRUSTEES OF COLUMBIA UNIVERSITY IN THE CITY OF NEW YORK, priority 2011, published 2014)
